Patent publication US20130116219A1, “ANTIMICROBIAL CARBOLINE COMPOUNDS” (ALCON RESEARCH, LTD., priority 2011, published 2013)
In brackets after ≈: the same amount, converted by molar mass.

What was measured:
Ad5 [1] = test: Ad5 genome replication assay (cell-based QPCR) in A549 cells; settings: Human adenovirus sp., A549, 72 h, read-out: Ad5 qPCR EC50 (μM)
Protocol: Compounds of the present invention were tested for potency against Ad5 in an Ad5 genome replication assay, a cell-based QPCR assay of Ad5 genome replication in A549 cells, a human lung carcinoma cell line. Serotype of human Ad5, used in this replication assay can also replicate in a NZW rabbit model of adenoviral ocular keratitis.
EC50 values (μM) for inhibition of adenoviral replication were determined by QPCR. Briefly, 10,000 cultured A549 cells were inoculated with 25,000 pfu/well for 3 hrs in 2% FBS F12-K A549 culture media. Following inoculation, A549 cells were treated with log unit dilutions of compound of Formula I (˜10 μM thru˜10 pM) in 10% FBS F12-K culture media with 0.3% DMSO for an additional 3 days. Cell viability was assessed with Alamar Blue (10 μl/well for 2 hrs; fluorescence Ex353; Em595 nm). Plates were washed 3 times with 125 μl PBS, cell lysates were prepared for QPCR analysis using Cells to SNP kit (Life Technologies). Ad5 genome levels per cell were determined with RNaseP and Ad5 hexon Taqman Assays (Life Technologies). EC50, the concentration that inhibited Ad5 genome replication formation by 50%, was estimated from plots of Ad5 genomes/cell vs. compound concentration.

Ad3 = test: Plaque reduction assay in A549 cells, Ad3; type: cell-based; settings: unidentified adenovirus, 168 h, approximately 7 d, read-out: Adenovirus Serotype EC50 (μg/mL) Ad3
Protocol: (§1) Compounds of the present invention were tested for potency against AdV serotypes Ad3, Ad4, Ad5, Ad7a, Ad8, Ad19, and Ad37 in a plaque reduction assay, a cell-based assay of AdV replication. Ad8, Ad19, and Ad37 are the serotypes most commonly associated with epidemic keratoconjunctivitis (EKC). Ad3, Ad4, and Ad7a are serotypes most commonly associated with follicular conjunctivitis and serotype Ad5 can replicate in the NZW rabbit model of adenoviral ocular keratitis. Ad3, Ad4, Ad5, Ad7a, Ad8, and Ad19 were recovered at the Charles T. Campbell Ophthalmic Microbiology Laboratory from patients presenting with typical adenoviral ocular disease. No clinical isolates of Ad37 were available, so the ATCC (American Type Culture Collection, Manassas, Va.) reference strain of Ad37 was used.
(§2) EC50 values (μg/ml) for inhibition of adenoviral replication were determined by plaque reduction assay. Briefly, cultured A549 cells were inoculated with approximately 100 pfu of the indicated adenovirus serotype. Inoculated cells were overlaid with methylcellulose medium containing Compound 2 at 100, 10, 1, 0.1, 0.01, and 0.001 μg/ml, and incubated at 37° C./5% CO2 for approximately 7 d. Plates were stained with gentian violet, and plaques were counted in a 25× dissecting microscope. IC50, the concentration that inhibited plaque formation by 50%, was estimated from plots of mean plaque count vs. concentration.

Ad4 = test: Plaque reduction assay in A549 cells, Ad4; type: cell-based; settings: unidentified adenovirus, 168 h, approximately 7 d, read-out: Adenovirus Serotype EC50 (μg/mL) Ad4
Protocol: as §1, §2

Ad5 [2] = test: Plaque reduction assay in A549 cells, Ad5; type: cell-based; settings: unidentified adenovirus, A549, 168 h, read-out: Adenovirus Serotype EC50 (μg/mL) Ad5
Protocol: as §1, §2

Ad7a = test: Plaque reduction assay in A549 cells, Ad7a; type: cell-based; settings: unidentified adenovirus, 168 h, approximately 7 d, read-out: Adenovirus Serotype EC50 (μg/mL) Ad7a
Protocol: as §1, §2

Ad8 = test: Plaque reduction assay in A549 cells, Ad8; type: cell-based; settings: unidentified adenovirus, A549, 168 h, read-out: Adenovirus Serotype EC50 (μg/mL) Ad8
Protocol: as §1, §2

Ad19 = test: Plaque reduction assay in A549 cells, Ad19; type: cell-based; settings: unidentified adenovirus, 168 h, approximately 7 d, read-out: Adenovirus Serotype EC50 (μg/mL) Ad19
Protocol: as §1, §2

Ad37 = test: Plaque reduction assay in A549 cells, Ad37; type: cell-based; settings: unidentified adenovirus, 168 h, approximately 7 d, ATCC reference strain, read-out: Adenovirus Serotype EC50 (μg/mL) Ad37
Protocol: as §1, §2

AdV serotype 5 (Ad5) = settings: Harvey et al., Antiviral Res. 82:1-11, 2009; read-out: EC50, inhibition of replication of AdV serotype 5 (Ad5); cited from earlier work
polyoma virus SV40 = settings: Harvey et al., Antiviral Res. 82:1-11, 2009; read-out: EC50, inhibition of replication of polyoma virus SV40; cited from earlier work
[3] = test system: human papillomavirus (HPV); settings: Harvey et al., Antiviral Res. 82:1-11, 2009; read-out: EC50, inhibition of replication of human papillomavirus (HPV); cited from earlier work
Epstein-Barr virus (EBV) = settings: Harvey et al., Antiviral Res. 82:1-11, 2009; read-out: EC50, inhibition of replication of Epstein-Barr virus (EBV); cited from earlier work

| Structure (SMILES) | EC50 (Ad5 [1]) [µM] | EC50 (Ad3) [µg/mL] | EC50 (Ad4) [µg/mL] | EC50 (Ad5 [2]) [µg/mL] | EC50 (Ad7a) [µg/mL] | EC50 (Ad8) [µg/mL] | EC50 (Ad19) [µg/mL] | EC50 (Ad37) [µg/mL] | EC50 (AdV serotype 5 (Ad5)) [nM] | EC50 (polyoma virus SV40) [nM] | EC50 [3] [nM] | EC50 (Epstein-Barr virus (EBV)) [nM] |
| --- | --- | --- | --- | --- | --- | --- | --- | --- | --- | --- | --- | --- |
| CC(C)C[C@H]1c2[nH]c3ccc(Br)cc3c2CCN1C(=O)C1CCN(C2CC2)CC1 [Compound 97, (S)-(6-bromo-1-isobutyl-3,4-dihydro-1H-pyrido[3,4-b]indol-2(9H)-yl)(1-cyclopropylpiperidin-4-yl)methanone] | < 0.1 | 0.1 to 1 (≈ 0.218 to 2.18 µM) | > 1 | < 0.1 | 0.1 to 1 (≈ 0.218 to 2.18 µM) | < 0.1 | 0.1 to 1 (≈ 0.218 to 2.18 µM) | 0.1 to 1 (≈ 0.218 to 2.18 µM) | – | – | – | – |
| O=C(N[C@@H]1CCCc2c1[nH]c1ccc(Cl)cc21)c1ccccn1 [GSK-983] | – | – | – | – | – | – | – | – | 5 to 20 | 5 to 20 | 5 to 20 | 5 to 20 |
| CC(C)C[C@H]1c2[nH]c3ccc(Cl)cc3c2CCN1C(=O)CCN1CCN(CC(F)F)CC1 [Compound 73, (S)-1-(6-chloro-1-isobutyl-3,4-dihydro-1H-pyrido[3,4-b]indol-2(9H)-yl)-3-(4-(2,2-difluoroethyl)piperazin-1-yl)propan-1-one] | 0.1 to 1 | 0.1 to 1 (≈ 0.214 to 2.14 µM) | 0.1 to 1 (≈ 0.214 to 2.14 µM) | 0.1 to 1 (≈ 0.214 to 2.14 µM) | 0.1 to 1 (≈ 0.214 to 2.14 µM) | 0.1 to 1 (≈ 0.214 to 2.14 µM) | > 1 | > 1 | – | – | – | – |
| CC(C)C[C@H]1c2[nH]c3ccc(Cl)cc3c2CCN1C(=O)CNC1CC1 [Compound 91, (S)-1-(6-chloro-1-isobutyl-3,4-dihydro-1H-pyrido[3,4-b]indol-2(9H)-yl)-2-(cyclopropylamino)ethanone] | < 0.1 | 0.1 to 1 (≈ 0.278 to 2.78 µM) | 0.1 to 1 (≈ 0.278 to 2.78 µM) | < 0.1 | 0.1 to 1 (≈ 0.278 to 2.78 µM) | 0.1 to 1 (≈ 0.278 to 2.78 µM) | 0.1 to 1 (≈ 0.278 to 2.78 µM) | 0.1 to 1 (≈ 0.278 to 2.78 µM) | – | – | – | – |
